Marks after values point to notes of the source that are not given here.
Legend:
rat cortical neurons = assay: Glutamate-induced delayed toxicity, neuroprotection, MTT assay; conditions: FIG. 5b
Experimental: Cell death (glutamate toxicity) was measured using the MTT assay.
The glutamate exposure involved treatment wit 100 micromoolar glutamate for 30 min followed by its removal. […] All data are means +1-SEM from at least three different experiments.
To study glutamate neurotoxicity, we utilized primary cultures of rat cortical neurons and used a glutamate pulse model which produces delayed neuronal death in 24 hrs. All studies were performed in Locke's medium prepared in our laboratory to avoid contribution from the vitamins and additives typically found in many commercial media.
To determine whether the protective effects of pyruvate against glutamate toxicity were due to its effect on cell metabolism, we utilized 4-hydroxycinnamate, a compound that blocks the transporter by which pyruvate enters mitochondria. While pyruvate can exert its antioxidant effects in any compartment, its utilization in energy metabolism requires its entry into mitochondria.

[1] = system: rat cerebral cortical astrocytes; type: cell-based; conditions: FIG. 11
Experimental: Astrocytes were treated with increasing amounts of the ER calcium pump inhibitor thapsigargin for 24 hrs in either Krebs buffer or MEM. Cell viability was determined using the MTT assay.
FIG. 10. Exogenous pyruvate provides protection to astrocytes from calcium overload in Krebs Buffer.
For these experiments astrocytes were cultured in either MEM or in Krebs alone or in Krebs with different aminoacid additions grouped as in FIG. 8. Aminoacids were used at 1 mM each. Following 30 min incubation with aminoacids, 15 μM thapsigargin was added to the cultures and the astrocytes cultured for another 24 hours in the presence or absence of 10 mM cinnamate, at which point cell viability was determined using the MTT assay. Cell viability is expressed as percent of that seen with MEM without thapsigargin addition. At the 15 μM thapsigargin dose, about 80% viability is seen in MEM and this is reduced to 20% by the addition of pyruvate. […]
The combination of pyruvate, nicotinamide, and creatine has synergistic benefits for cellular energy metabolism and is also cytoprotective. […] Since we had shown that pyruvate protects neurons from calcium overload induced by thapsigargin toxicity, we first determined whether endogenously produced or exogenously supplied pyruvate could protect astrocytes from calcium overload induced by thapsigargin as shown previously for GT1-7 neurons. […]

GT1-7 neurons [2] = assay: Cellular ATP and phosphocreatine levels, chemiluminescent firefly luciferase assay; type: cell-based, rat; conditions: 1 mM each, 1 hour incubation; for ATP (% control) / CP (% control): Locke's media; for CP (% control): phosphocreatine
Experimental: (§1) While each of these agents may have additional neuroprotective properties outside of their role in energy metabolism, our major premise is that this combination will provide neuroprotection through enhancement of brain energy levels. To assess this we monitored three different bioenergetic parameters: Whole cell NADH levels, cellular ATP levels and cellular phosphocreatine levels. GT1-7 cells or cross-chopped rat cerebral cortical slices were equilibrated in oxygenated Locke's media for 1 hour. Pyruvate, nicotinamide, or creatine were than added alone or in combination at 1 mM each. Analytes were measured after another hour of incubation. NADH was measured using its specific fluorescence properties in suspended cells and the effect of each nutrient alone and in combination on GT1-7 neuronal NADH levels is shown in table 2a. Pyruvate would be expected to raise mitochondrial NADH levels through its participation in the Krebs cycle and it indeed appears to account for all of this effect in the combination. ATP and phosphocreatine were measured via a chemiluminescent assay utilizing firefly luciferase. In viable cells, phosphocretine levels most adequately reflect cellular energy supply since cells readily convert any excess ATP into phosphocreatine.

GT1-7 neurons [3] = assay: Whole cell NADH levels by NADH fluorescence in suspended cells; type: cell-based, rat; conditions: 1 mM each, 1 hour incubation, Locke's media; * significant vs Locke's medium alone P<0.05
Experimental: as §1

GT1-7 cells = assay: Thapsigargin (calcium overload) toxicity, neuroprotection, MTT dye reduction assay; conditions: 20 micromolar thapsigargin, FIG. 4B
Experimental: GT1-7 cell were subjected to treatments and assessed for nutrient neuroprotection as described in the text. All data are means +/− SEM from at least three different experiments.
To study calcium overload toxicity, we treated cells with thapsigargin, an agent that blocks the endoplastic reticulum calcium pump and markedly elevates cytoplasmic calcium levels. […] All studies were performed in Locke's medium prepared in our laboratory to avoid contribution from the vitamins and additives typically found in many commercial media. After determining the toxin treatment dose needed to produce complete toxicity, we then treated the cells dose-dependently with pyruvate, nicotinamide (nicotinamide) and creatine, either alone or in combination along with the LD95 dose of the toxins. […] For the combination experiments, all three agents are added together and the x-axis indicates the concentration of each agent in the combination.

[4] = system: rat cerebral cortical slices; assay: ATP and phosphocreatine levels in cross-chopped cerebral cortical slices, firefly luciferase assay; type: cell-based; conditions: 1 mM each
Experimental: as §1, with “Analytes were measured after another hour of incubation.” left out, “phosphocreatine. […] The response with the combination was larger and was maintained after 6 hours of continued incubation.” for “phosphocreatine.”

O=C(O)C=Cc1ccc(O)cc1 [4-hydroxycinnamate]
effect on glutamate toxicity alone (in words) (rat cortical neurons): no significant effect on glutamate toxicity alone | effect on the protection by pyruvate (in words) (rat cortical neurons): prevents the protective effects of pyruvate | effect of cinnamate on susceptibility of MEM cultured astrocytes to thapsigargin (in words) [1]: more susceptible to thapsigargin toxicity

CN(CC(=O)O)C(=N)N [Creatine, creatine]
CP/ATP Ratio (GT1-7 neurons [2]): 115.2 | ATP (% control) (GT1-7 neurons [2]): 42 + 14.2* % control | CP (% control) (GT1-7 neurons [2]): 3314.3 + 920* % control | NADH fluorescence (GT1-7 neurons [3]): 99.3 ± 2.3 | protection against calcium overload (in words) (GT1-7 cells): nearly complete dose dependent protection

NC(=O)c1cccnc1 [Nicotinamide, nicotinamide]
CP/ATP Ratio (GT1-7 neurons [2]): 4.3 | ATP (% control) (GT1-7 neurons [2]): 48.6 ± 23.4 % control | CP (% control) (GT1-7 neurons [2]): 133.1 + 25 % control | NADH fluorescence (GT1-7 neurons [3]): 98.8 ± 2.2 | protection against calcium overload (in words) (GT1-7 cells): nearly complete dose dependent protection

CC(=O)C(=O)O [Pyruvate, pyruvate]
ATP % ctr ([4]; 1 h): 77.7 % ctr | CP % ctr ([4]; 1 h): 233.6 % ctr | CP/ATP Ratio ([4]; 1 h): 3.1 | ATP % ctr ([4]; 6 h): 143.6 % ctr | CP % ctr ([4]; 6 h): 150.6 % ctr | CP/ATP Ratio ([4]; 6 h): 1 | CP/ATP Ratio (GT1-7 neurons [2]): 6 | ATP (% control) (GT1-7 neurons [2]): 103.5 ± 17.7 % control | CP (% control) (GT1-7 neurons [2]): 551.7 ± 193.7 % control | NADH fluorescence (GT1-7 neurons [3]): 134.64 ± 9.9*

From patent US7358278B2, “Cellular phosphorylation potential enhancing compositions preparation and use thereof” (priority 1994, dated 2008)
